Results taken from patent US12084435B2, “Pyridine ring-substituted pyridazinol compounds and derivatives, preparation methods, herbicidal compositions and applications thereof” (Qingdao Kingagroot Chemical Compound Co., Ltd., priority 2018, dated 2024).

System: monocotyledonous and dicotyledonous weed
Assay: Post-emergence test, weed control effect (Tables 6 and 7)
Format: in vivo
Parameters: key: 10: completely dead; above 90% growth inhibition rate; above 80% growth inhibition rate; above 70% growth inhibition rate; above 60% growth inhibition rate; above 50% growth inhibition rate; above 40% growth inhibition rate; above 30% growth inhibition rate; above 20% growth inhibition rate; 1: below 20% growth inhibition rate; 0: no effect
Conditions: Dose 300 g/ha
Method: The above described growth inhibition rates are fresh weight inhibition rates. Experiment of post-emergence test: monocotyledonous and dicotyledonous weed seeds as well as main crop seeds (i.e., wheat, corn, rice, soybean, cotton, oilseed rape, millet and sorghum) were put into aplastic pot loaded with soil, then covered with 0.5-2 cm of soil, and the seeds were allowed to grow in good greenhouse environment. The test plants were treated at 4-5 leaf stage 2-3 week […] sowing. The test compounds of the invention were dissolved in acetone respectively, then added with Tween-80 and diluted by a certain amount of water to give solutions with certain concentrations. The solution was sprayed to the plants with as prayer. The plants were cultured for 3 weeks in the greenhouse.

| SMILES | comparison experiment (activity level), Digitaria sanguinalis | comparison experiment (activity level), Echinochloa crus-galli | comparison experiment (activity level), Galium aparine | comparison experiment (activity level), Rorippa indica | comparison experiment (activity level), Setaria viridis | comparison experiment (activity level), Veronica polita |
| --- | --- | --- | --- | --- | --- | --- |
| CCCCCCCCSC(=O)Oc1cc(Cl)nnc1-c1ccccc1 [Control Compound B, reference compound] | 0 | 0 | 4 (above 40% growth inhibition rate) | 3 (above 30% growth inhibition rate) | 2 (above 20% growth inhibition rate) | 6 (above 60% growth inhibition rate) |

Same assay, conditions: Dose 1000 g/ha, after 3 weeks

| SMILES | weed control effect (activity level), Amaranthus retroflexus | weed control effect (activity level), Chenopodiaceae | weed control effect (activity level), Rorippa indica | weed control effect (activity level), Veronica polita |
| --- | --- | --- | --- | --- |
| Oc1cc(Cl)nnc1-c1ccnc(F)c1F [Compound 2-10] | 10 | 10 | 10 | 10 |
| Oc1cc(Cl)nnc1-c1cc(F)ncc1F [Compound 2-11] | 10 | 10 | 10 | 10 |
| Oc1cc(Cl)nnc1-c1cc(F)nc(F)c1 [Compound 2-13] | 10 | 10 | 10 | 10 |
| Oc1cc(Cl)nnc1-c1cc(F)nc(Cl)c1 [Compound 2-23] | 10 | 10 | 10 | 10 |

Same assay, conditions: Dose 2000 g/ha, after 3 weeks

| SMILES | weed control effect (activity level), Amaranthus retroflexus | weed control effect (activity level), Chenopodiaceae | weed control effect (activity level), Rorippa indica | weed control effect (activity level), Veronica polita |
| --- | --- | --- | --- | --- |
| Oc1cc(Cl)nnc1-c1ccc(F)cn1 [Compound 3-3] | 10 | 10 | 10 | 10 |
| Oc1cc(Cl)nnc1-c1ccc(Cl)cn1 [Compound 3-7] | 10 | 10 | 10 | 10 |
| Oc1cc(Cl)nnc1-c1cc(Cl)ccn1 [Compound 3-8] | 10 | 10 | 10 | 10 |
| Oc1cc(Cl)nnc1-c1ccc(F)c(F)n1 [Compound 3-18] | 10 | 10 | 10 | 10 |
| Oc1cc(Cl)nnc1-c1cc(F)cc(F)n1 [Compound 3-19] | 10 | 10 | 10 | 10 |
| Oc1cc(Cl)nnc1-c1ccc(Cl)c(F)n1 [Compound 3-30] | 10 | 10 | 10 | 10 |

System: Echinochloa crusgalli, Scirpus juncoides, Sagittaria trifolia L. and Bidens tripartite
Assay: Resistance tests of the collected rice-field weeds
Format: in vivo
Conditions: common rate; weed seeds collected from Heilongjiang Province of China
From the text: Note: The seeds of Echinochloa crusgalli, Scirpus juncoides, Sagittaria trifolia L. and Bidens tripartite were collected from Heilongjiang Province of China.

| SMILES | resistance of the weeds to the herbicide |
| --- | --- |
| CCOC(=O)c1cnn(C)c1S(=O)(=O)NC(=O)Nc1nc(OC)cc(OC)n1 [pyrazosulfuron-ethyl] | resistant |
